# Laboratory results as given in patent US20030171545A1, “Novel Protein” (priority 1999, published 2003).
# “Also recorded” adds a separate entry of the source.
# Legend:
# LTRGW1 [1] = target: T1, LTRGW1 (Homo sapiens, UniProt Q9NPC1); conditions: leukotriene binding to LTRGW1; Kamohara et al; cited from earlier work
# T1 sequence (Q9NPC1 1-358): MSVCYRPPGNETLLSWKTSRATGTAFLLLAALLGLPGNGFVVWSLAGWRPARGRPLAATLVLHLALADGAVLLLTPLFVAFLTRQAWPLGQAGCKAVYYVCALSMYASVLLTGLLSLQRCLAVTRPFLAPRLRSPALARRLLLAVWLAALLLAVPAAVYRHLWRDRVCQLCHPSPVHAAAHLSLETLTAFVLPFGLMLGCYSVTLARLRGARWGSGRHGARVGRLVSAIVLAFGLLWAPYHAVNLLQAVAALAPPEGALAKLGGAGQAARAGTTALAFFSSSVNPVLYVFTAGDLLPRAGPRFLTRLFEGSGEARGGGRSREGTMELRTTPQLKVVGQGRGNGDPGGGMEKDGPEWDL
# LTRGW1 [2] = target: T1, LTRGW1; conditions: Yokomizo et al; cited from earlier work
# BLTR = target: T2, BLTR (Homo sapiens, UniProt Q15722); experiment: FLIPR intracellular calcium response to LTB4, CHO cells transfected with BLTR; format: cell-based; conditions: LTB4 10^-10 to 10^-7 M
# T2 construct: expressed in transfected cells; host or cells: CHO
# Experimental: (§1) […] total DNA was transfected into CHO cells using the following transfection mix: 5 μg BLTR, pcDNA3 as needed to keep constant the amount of total DNA used, 1 μg pCMV-luciferase and BLTR-2 at various concentration. Responses to LTB4 (between 10^−10 and 10^−7 M) were measured using a FLIPR assay (Fluorescence Imaging Plate Reader—Molecular Devices) and values were normalised relative to the luciferase reading.
# LTRGW1 [3] = target: T1, LTRGW1; conditions: Kamohara et al; cited from earlier work
# LTRGW1 [4] = experiment: FLIPR intracellular calcium response to LTB4, CHO cells transfected with LTRGW1 alone; format: cell-based, human
# Experimental: […] Responses to LTB4 (between 10^−10 and 10^−7 M) were measured using a FLIPR assay (Fluorescence Imaging Plate Reader—Molecular Devices) and values were normalised relative to the luciferase reading.
# [5] = target: T3, BLTR and LTRGW1 co-expressed (Homo sapiens, UniProt Q15722+Q9NPC1); experiment: [3H]LTB4 binding to membranes of transfected CHO cells, scintillation proximity assay; conditions: [3H]LTB4, membranes of transfected CHO cells; compared with BLTR or LTRGW1 alone; FIG. 2
# T3 construct: expressed in transfected cells; host or cells: CHO
# Experimental: CHO cells were transfected with DNA as described in Example 1. [^3H] LTB4 binding to membrane preparations from transfected cells was measured using wheat germ agglutinin beads in a scintillation proximity assay. The assay was carried out in 50: g Hepes 20: g MgCl2 in a total assay volume of 100: g. [^3H] LTB4 was used to measure total binding. [^3H] LTB4 was then displaced with unlabelled LTB4 to measure non-specific binding (NSB). The binding of LTB4 to cells expressing BLTR cells co-expressing BLTR and LTRGW1 and cells expressing LTRGW1 is illustrated in FIG. 2.
# [6] = test system: Mock transfected CHO cells; experiment: FLIPR intracellular calcium response to LTB4, mock transfected CHO cells; format: cell-based; conditions: LTB4 10^-10 to 10^-7 M, normalised to luciferase
# Experimental: as §1
# BLTR/LTRGW1 = experiment: FLIPR intracellular calcium response to LTB4, CHO cells co-transfected with BLTR and LTRGW1; format: cell-based, human
# Experimental: as §1
# T2 sequence (Q15722 whole entry): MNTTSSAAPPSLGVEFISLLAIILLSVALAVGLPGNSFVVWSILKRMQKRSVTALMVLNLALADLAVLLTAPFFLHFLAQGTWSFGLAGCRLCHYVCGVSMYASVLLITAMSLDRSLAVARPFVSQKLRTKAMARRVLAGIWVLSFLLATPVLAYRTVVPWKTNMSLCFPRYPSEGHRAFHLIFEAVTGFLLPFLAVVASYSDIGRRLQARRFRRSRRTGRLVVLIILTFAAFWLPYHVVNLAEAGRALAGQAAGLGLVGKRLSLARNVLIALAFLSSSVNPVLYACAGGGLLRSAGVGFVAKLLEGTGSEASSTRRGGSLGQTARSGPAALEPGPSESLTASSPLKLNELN
# T3 sequence (Q15722 whole entry, one chain of several): as the sequence (Q15722 whole entry) above
smiles,measurement,setting,value
CCCCC/C=C\C[C@H](O)/C=C/C=C/C=C\[C@@H](O)CCCC(=O)O [12-epi-LTB4],Forskolin-stimulated intracellular cAMP accumulation,LTRGW1 [1],inhibition
CCCCCCCC[C@H](O)/C=C/C=C\C=C\[C@H](O)CCCC(=O)O [LTB3],Forskolin-stimulated intracellular cAMP accumulation,LTRGW1 [1],inhibition
CCCCC/C=C\C[C@@H](O)/C=C/C=C/C=C\[C@@H](O)CCCC(=O)O [LTB4],Cellular calcium,LTRGW1 [2],increases cellular calcium; also recorded: increases intracellular calcium
same,Response to LTB4,BLTR,Active
same,Forskolin-stimulated intracellular cAMP accumulation,LTRGW1 [1],inhibition
same,Chemotaxis,LTRGW1 [3],induces chemotaxis
same,Response to LTB4,LTRGW1 [4]; CHO cells transfected with LTRGW1(274),Inactive
same,Response to LTB4,LTRGW1 [4]; CHO cells transfected with LTRGW1(275),Inactive
same,Response to LTB4,LTRGW1 [4]; CHO cells transfected with LTRGW1(276),Inactive
same,Mobilisation of intracellular calcium in response to LTB4,LTRGW1 [4]; LTRGW1 expressed alone in CHO cells,does not induce a detectable mobilisation of intracellular calcium
same,LTB4 binding to cells co-expressing BLTR and LTRGW1,[5],enhancement
same,Response to LTB4,[6],Inactive
same,Response to LTB4,"BLTR/LTRGW1; CHO cells transfected with BLTR/LTRGW1(276), FLIPR",Active
same,Response of BLTR to LTB4 when LTRGW1 is co-expressed,"BLTR/LTRGW1; compared with BLTR alone, increase proportional to amount of LTRGW1 in transfection mix, FIG. 1",increased
CC/C=C\C/C=C\C[C@@H](O)/C=C/C=C/C=C\[C@@H](O)CCCC(=O)O [LTB5],Forskolin-stimulated intracellular cAMP accumulation,LTRGW1 [1],inhibition
